The text below walks through data of patent EP2738172A1 (Almirall, S.A., priority 2012, dated 2014).

The structures appear in SMILES notation. pIC50: −log10 of the molar value.

Assay [1] deals with Jurkat E6-1 cells. As to the kind of experiment: fluorescent calcium flux assay (FLIPR, thapsigargin store depletion). As to conditions: Homo sapiens, Thapsigargin 10µM, 2mM final calcium concentration, FLIPR Calcium 5 dye, read-out: Ca^2+ flux IC50. Type of assay: cell-based. As to the method:
fluorescent calcium flux assay
Jurkat E6-1 cells were obtained from ATCC (number TIB-152™) and maintained as ATCC recommend; in medium RPMI-1640 with 10% FBS at 37°C and 5% CO2.
Before the assay, Jurkat cells were grown at a density of 2 millions cells/ml in cell culture media (RPMI with 10% FBS) in a T-175 flask at 37°C and 5% CO2. The day of the assay, cells were harvested by centrifugation (5 minutes at 1500 rpm) and the pellet were suspended in Ca^2+ free assay buffer (HBSS w/o Ca^2+ and Mg^2+, 20mM Hepes and 1 mM MgCl2, pH 7.4) at a density of 5 million cells/ml.
Calcium depletion was initiated by the addition to the cell suspension of Thapsigarguin at a final assay concentration of 10µM. 20µl of the cellular suspension containing Thapsigargin (100.000 cells/well) were plated into 384 well plates (corning 3711) and incubated at RT for 15 minutes.
Test compounds were diluted in DMSO 100% to get a 10^-2M stock solution and serial dilutions 1/3 were performed in the same solvent. Then, 20µl of test compounds, diluted 75 times in Ca^2+ free assay buffer, were added to the cells and incubated at RT for 1h.
Once this incubation was completed, 5 µl of dye solution (FLIPR Calcium 5 Express Kit, Molecular Devices), prepared as Molecular Devices recommend, were added into the assay plates followed by an extra incubation period of 1 hour at room temperature. After the second incubation period, assay plates were placed into the FLIPR Tetra from Molecular Devices. Fluorescence was measured at a wavelength of 525nm after the dye excitation at 485nm. The initial baseline was measured during 20 seconds, and then 8µl of a 13mM Calcium solution in assay buffer were added (2mM final calcium concentration) except for basal wells, where assay buffer without calcium was added. At this time, changes in the cellular fluorescent were measured for an extra 80 seconds.
Peak and base line were taken for the calculation of the ratio (Peak/Base Line). Total, basal and compound well ratio values were used to calculate %Inhibition.

The subject of assay [2] is Jurkat E6-1 cells. As to the kind of experiment: In vitro assay of cytokine release from T cells (IL-2 ELISA). Type of assay: cell-based. The settings on record: Homo sapiens, Jurkat cells stimulated with PHA 20 µg/ml, 20 hours, secreted IL-2 by ELISA, read-out: Jurkat IL2 IC50. The protocol:
In vitro assay of cytokine release from T cells
Jurkat E6-1 cells were obtained from American Type Culture Collection (ATCC) and maintained in complete medium with 10% fetal bovine serum (FBS) at 37°C/5%CO2. Cells were plated in 100 µL of Dubelcco's Modified Eagle Medium (DMEM) with 1% FBS in a 96 well plate at a density of 1x10^6 cells/well and 50 µL of test compound was added. Cells were then stimulated by the addition of 50 µL of phytohemagglutinin (PHA) (final concentration 20 µg/ml) and incubated at 37°C/5%CO2 for 20 hours. On the following day, the supernatants were collected and assayed for IL-2 levels by ELISA according to the manufacturer's protocols. The IC50 value was calculated as the concentration at which 50% of secreted IL-2 in vehicle is inhibited.
Background: ELISA stands for enzyme-linked immunosorbent assay.

In the case of `Cn1nc(C(F)(F)F)cc1-c1cc2cc(-c3c(F)cccc3Cl)[nH]c2cn1`, the pIC50 in assay [1] was 6.19; in assay [2], 6.07.
On to `COc1cc(C)c(-c2cnc3[nH]c(-c4c(F)cccc4Cl)cc3c2)cn1` [Ex. 1, 2-(2-Chloro-6-fluorophenyl)-5-(6-methoxy-4-methylpyridin-3-yl)-1H-pyrrolo[2,3-b]pyridine], for which the pIC50 was 7.15 in assay [1] and 7.40 in assay [2].
The corresponding values for `COc1cc(C)c(-c2cnc3[nH]c(-c4c(F)cccc4Cl)cc3n2)cn1` [Ex. 2, 6-(2-Chloro-6-fluorophenyl)-2-(6-methoxy-4-methylpyridin-3-yl)-5H-pyrrolo[2,3-b]pyrazine] are 6.45 and 7.00.
`Cc1cc(S(=O)(=O)N(C)C)ccc1-c1cnc2[nH]c(-c3c(F)cccc3Cl)cc2n1` [Ex. 8, 4-[6-(2-chloro-6-fluorophenyl)-5H-pyrrolo[2,3-b]pyrazin-2-yl]-N,N,3-trimethylbenzenesulfonamide]: the negative logarithm of the IC50 (pIC50) in assay [1] is 6.10; in assay [2] it was 7.39.
On to `COc1cc(C)c(-c2cnc3[nH]c(-c4c(F)cc(OCCCO)cc4F)cc3c2)cn1` [Ex. 9, 3-{3,5-difluoro-4-[5-(6-methoxy-4-methylpyridin-3-yl)-1H-pyrrolo[2,3-b]pyridin-2-yl]phenoxy}propan-1-ol], for which the negative-log IC50 (pIC50) in assay [1] is 6.43; in assay [2], 6.68.
For `Fc1cccc(Cl)c1-c1cc2cc(-c3cc4c(cc3Cl)OC(F)(F)O4)cnc2[nH]1` [Ex. 13, 5-(6-Chloro-2,2-difluoro-1,3-benzodioxol-5-yl)-2-(2-chloro-6-fluorophenyl)-1H-pyrrolo[2,3-b]pyridine], the negative logarithm of the IC50 (pIC50) was 6.92 in assay [1] and 7.25 in assay [2].
Regarding `Cn1nc(C(F)(F)F)cc1-c1ccc2[nH]c(-c3c(F)cccc3Cl)cc2n1` [Ex. 14, 2-(2-Chloro-6-fluorophenyl)-5-[1-methyl-3-(trifluoromethyl)-1H-pyrazol-5-yl]-1H-pyrrolo[3,2-b]pyridine], the pIC50 in assay [1] was 7.28; in assay [2], 7.44.
As for `Cn1nc(C(F)(F)F)cc1-c1ccc2[nH]c(C3CCCCC3)cc2n1` [Ex. 16, 2-Cyclohexyl-5-[1-methyl-3-(trifluoromethyl)-1H-pyrazol-5-yl]-1H-pyrrolo[3,2-b]pyridine], the pIC50 was 6.41 in assay [1] and 6.89 in assay [2].
In the same order, the values of `FC(F)Oc1cc(C(F)(F)F)nn1-c1ccc2[nH]c(C3CCCCC3)cc2n1` [Ex. 30, 2-Cyclohexyl-5-[5-(difluoromethoxy)-3-(trifluoromethyl)-1H-pyrazol-1-yl]-1H-pyrrolo[3,2-b]pyridine] are 6.44 and 6.96.
Consider `CNS(=O)(=O)c1ccc(-c2cnc3[nH]c(-c4c(F)cccc4Cl)cc3n2)c(C)c1` [Ex. 69, 4-(6-(2-Chloro-6-fluorophenyl)-5H-pyrrolo[2,3-b]pyrazin-2-yl)-N,3-dimethylbenzenesulfonamide], for which the pIC50 in assay [1] was 6.24; in assay [2], 6.94.
As for `Cc1nc2cc(Cl)c(-c3cnc4[nH]c(-c5c(F)cccc5Cl)cc4c3)cc2o1` [Ex. 73, 5-Chloro-6-(2-(2-chloro-6-fluorophenyl)-1H-pyrrolo[2,3-b]pyridin-5-yl)-2-methylbenzo[d]oxazole], the results for the negative logarithm of the IC50 (pIC50) in assay [1] and in assay [2] were 7.06 and 6.93, respectively.

What is called pIC50 is −log10 of the IC50, conventionally taken in molar units.
